Experimental data reported in patent US7169785B2, “Methods and compositions of novel triazine compounds” (Reddy US Therapeutics, Inc., priority 2001, dated 2007).
Like-named read-outs stand apart in the source and are kept apart here.

Key:
IL-6 [1] = experiment: AGE (G-HSA)-induced inflammatory response determined by IL-6 ELISA in HAEC; type: cell-based, human; conditions: Homo sapiens; for activity at 10 µM: 24 h, Compds tested @ 10 uM, IL6, read-out: % IL6 production compare to AGE stimulation of IL6 (100%); for IC50: IL6, unit inferred, read-out: IC50 (AGE stimulation of IL6)
Experimental: Human aortic endothelial cells (HAEC, Clonetics) were cultured according to manufacturer in growth medium (Clonetics): basal medium containing human epidermal growth factor, hydrocortisone, vascular endothelial growth factor, heparin binding growth factor-B, long R3-insulin-like growth factor-1, ascorbic acid, gentamicin/amphotericin and 5% FBS. These cell were allowed to reach at least 90% confluency before subjected to experimental treatments. […] Tumor necrosis factor α was from R&D Systems.
All treatments, compound-added and controls were carried out in serum free media containing 0.2% albumin. Media from all conditions were collected and used for IL-6 ELISA.
(§1) IL-6 ELISA was carried out using human IL-6 DuoSet ELISA development kit as described by manufacturer (R&D Systems). Mouse anti-human Il-6 was used as the capture antibody (2 ug/ml) and biotinylated goat anti-human IL-6 (200 ng/ml) was used as the detection antibody. Culture media were incubated with capture antibody (in 96 well) for 2 h at room temperature. Wells were washed three times with wash buffer (0.05% tween-20 in phosphate buffered saline (PBS) pH 7.4) followed by incubation with detection antibody for 2 h at room temperature. Following three washes wells were incubated with Streptavidin-HRP for 20 min. Color development was read at 450 nm in a Microplate reader.

IL-6 [2] = experiment: TNF-α-induced IL-6 production determined by IL-6 ELISA in HAEC; type: cell-based, human; conditions: HAEC; for activity at 10 µM / IC50: Homo sapiens, IL6; for activity at 10 µM: 24 h, Compds tested @ 10 uM, read-out: % IL6 production compare to TNF stimulation of IL6 (100%); for IC50: unit inferred, read-out: IC50 (TNF stimulation of IL6); for Inhibition of TNF-induced IL6 production: class of % of control IL6 production
Experimental: Human aortic endothelial cells (HAEC, Clonetics) were cultured according to manufacturer in growth medium (Clonetics): basal medium containing human epidermal growth factor, hydrocortisone, vascular endothelial growth factor, heparin binding growth factor-B, long R3-insulin-like growth factor-1, ascorbic acid, gentamicin/amphotericin and 5% FBS. These cell were allowed to reach at least 90% confluency before subjected to experimental treatments. Glycated human serum albumin (G-HSA) was from US Biologicals. Tumor necrosis factor α was from R&D Systems.
[…] All treatments, compound-added and controls were carried out in serum free media containing 0.2% albumin. Media from all conditions were collected and used for IL-6 ELISA.
as §1

[3] = system: Human aortic smooth muscle cells; experiment: Smooth muscle cell proliferation assay (anti-proliferation assay, perlecan); type: cell-based
Experimental: Human aortic smooth muscle cells (Clonetics) were used. Cells were grown in basal medium containing 5% fetal bovine serum supplemented with growth factors, basic fibroblast growth factor, epidermal growth factor and insulin. […] The cells were then serum starved for 24 h to induce quiescence. Fresh growth medium containing no compound or 10 μM compound was then added and further incubated for 24 h. Cell number was determined by using a cell proliferation assay kit (Celltiter96 AQueous from Promega).

[4] = Homo sapiens, anti-proliferation assay (perlecan), read-out: Activity (note 1)
[5] = Homo sapiens, anti-proliferation assay (perlecan), read-out: Avg IC-50
[6] = Homo sapiens, read-out: Activity (note 1)
[7] = Homo sapiens, read-out: Avg IC-50

Compound: CCN1CCCC1CNc1nc(NCc2ccccc2)nc(Nc2ccc(OC)c(F)c2)n1 (centres unmarked) [Compound 53, N^2-benzyl-N^4-[(1-ethyl-2-pyrrolidinyl)methyl]-N^6-(3-fluoro-4-methoxyphenyl)-1,3,5-triazine-2,4,6-triamine]
- activity at 10 µM (IL-6 [1]): 32%
- activity at 10 µM (IL-6 [2]): 1%

Compound: CCN1CCCC1CNc1nc(Nc2ccc(OC)c(F)c2)nc(N2CCCC2)n1 (centres unmarked) [Compound 57, N^2-[(1-ethyl-2-pyrrolidinyl)methyl]-N^4-(3-fluoro-4-methoxyphenyl)-6-(1-pyrrolidinyl)-1,3,5-triazine-2,4-diamine]
- activity at 10 µM (IL-6 [1]): 25%
- activity at 10 µM (IL-6 [2]): 1%

Compound: CCN1CCCC1CNc1nc(NCC2CCCCC2)nc(Nc2ccc(OC)c(F)c2)n1 (centres unmarked) [Compound 65, N^2-(cyclohexylmethyl)-N^4-[(1-ethyl-2-pyrrolidinyl)methyl]-N^6-(3-fluoro-4-methoxyphenyl)-1,3,5-triazine-2,4,6-triamine]
- activity at 10 µM (IL-6 [1]): 45%
- IC50 (IL-6 [1]): 3.24 µM
- activity at 10 µM (IL-6 [2]): 1%
- IC50 (IL-6 [2]): 6.7 µM

Compound: CCN1CCCC1CNc1nc(NCc2ccco2)nc(Nc2ccc(OC)c(F)c2)n1 (centres unmarked) [Compound 66, N^2-[(1-ethyl-2-pyrrolidinyl)methyl]-N^4-(3-fluoro-4-methoxyphenyl)-N^6-(2-furylmethyl)-1,3,5-triazine-2,4,6-triamine]
- activity at 10 µM (IL-6 [1]): 23%
- activity at 10 µM (IL-6 [2]): 1%

Compound: CCN1CCCC1CNc1nc(NCCN(C)C)nc(Nc2ccc(OC)c(F)c2)n1 (centres unmarked) [Compound 68, N^2-[2-(dimethylamino)ethyl]-N^4-[(1-ethyl-2-pyrrolidinyl)methyl]-N^6-(3-fluoro-4-methoxyphenyl)-1,3,5-triazine-2,4,6-triamine]
- activity at 10 µM (IL-6 [1]): 40%
- IC50 (IL-6 [1]): 7.7 µM
- activity at 10 µM (IL-6 [2]): 1%

Compound: CCN1CCCC1CNc1nc(Nc2ccc(OC)c(F)c2)nc(N2CCN(CC(=O)N3CCCC3)CC2)n1 (centres unmarked) [Compound 69, N^2-[(1-ethyl-2-pyrrolidinyl)methyl]-N^4-(3-fluoro-4-methoxyphenyl)-N^6-{4-[2-oxo-2-(1-pyrrolidinyl)ethyl]-1-piperazinyl}-1,3,5-triazine-2,4-diamine]
- activity at 10 µM (IL-6 [1]): 5%
- activity at 10 µM (IL-6 [2]): 1%

Compound: CCN1CCCC1CNc1nc(NCC2CCCN2CC)nc(Nc2ccc(OC)c(F)c2)n1 (centres unmarked) [Compound 70, N^2,N^4-bis[(1-ethyl-2-pyrrolidinyl)methyl]-N^6-(3-fluoro-4-methoxyphenyl)-1,3,5-triazine-2,4,6-triamine]
- activity at 10 µM (IL-6 [1]): 35%
- activity at 10 µM (IL-6 [2]): 1%

Compound: CCN1CCCC1CNc1nc(NCCN2CCCCC2)nc(Nc2ccc(OC)c(F)c2)n1 (centres unmarked) [Compound 71, N^2-[(1-ethyl-2-pyrrolidinyl)methyl]-N^4-(3-fluoro-4-methoxyphenyl)-N^6-[2-(1-piperidinyl)ethyl]-1,3,5-triazine-2,4,6-triamine]
- activity at 10 µM (IL-6 [1]): 29%
- activity at 10 µM (IL-6 [2]): 1%

Compound: CCN1CCCC1CNc1nc(Nc2ccc(OC)c(F)c2)nc(N2CCN(Cc3ccc4c(c3)OCO4)CC2)n1 (centres unmarked) [Compound 72, N^6-[4-(1,3-benzodioxol-5-ylmethyl)-1-piperazinyl]-N^2-[(1-ethyl-2-pyrrolidinyl)methyl]-N^4-(3-fluoro-4-methoxyphenyl)-1,3,5-triazine-2,4-diamine]
- activity at 10 µM (IL-6 [1]): 31%
- activity at 10 µM (IL-6 [2]): 5%

Compound: CCN1CCCC1CNc1nc(Nc2ccc(OC)c(F)c2)nc(N2CCN(c3ccccn3)CC2)n1 (centres unmarked) [Compound 73, N^2-[(1-ethyl-2-pyrrolidinyl)methyl]-N^4-(3-fluoro-4-methoxyphenyl)-N^6-[4-(2-pyridinyl)-1-piperazinyl]-1,3,5-triazine-2,4-diamine]
- activity at 10 µM (IL-6 [1]): 20%
- IC50 (IL-6 [1]): 7.5 µM
- activity at 10 µM (IL-6 [2]): 1%
- IC50 (IL-6 [2]): 8.7 µM

Compound: CCN1CCCC1CNc1nc(NCCCn2ccnc2)nc(Nc2ccc(OC)c(F)c2)n1 (centres unmarked) [Compound 75, N^2-[(1-ethyl-2-pyrrolidinyl)methyl]-N^4-(3-fluoro-4-methoxyphenyl)-N^6-[3-(1H-imidazol-1-yl)propyl]-1,3,5-triazine-2,4,6-triamine]
- activity at 10 µM (IL-6 [1]): 46%
- activity at 10 µM (IL-6 [2]): 43%

Compound: CCN1CCCC1CNc1nc(Nc2ccc(OC)c(F)c2)nc(NC2CCCCCC2)n1 (centres unmarked) [Compound 95, N^2-cycloheptyl-N^4-[(1-ethyl-2-pyrrolidinyl)methyl]-N^6-(3-fluoro-4-methoxyphenyl)-1,3,5-triazine-2,4,6-triamine]
- IC50 [3, 4]: > 7 µM
- IC50 [3, 5]: 7.3 µM
- activity at 10 µM (IL-6 [1]): 1%
- IC50 (IL-6 [1]): 6.6 µM
- Inhibition of TNF-induced IL6 production (IL-6 [2]): ++++ (between 0 and about 25% of IL6 production compared to cells that did not receive compound (or per cent of control IL6 production))
- activity at 10 µM (IL-6 [2]): 5%
- IC50 (IL-6 [2]): 2.8 µM

Compound: COc1ccc(Nc2nc(NCCCN3CCCC3=O)nc(NC3CCCCCC3)n2)cc1F [Compound 99, 1-[3-({4-(cycloheptylamino)-6-[(3-fluoro-4-methoxyphenyl)amino]-1,3,5-triazin-2-yl}amino)propyl]-2-pyrrolidinone]
- activity at 10 µM (IL-6 [1]): 8%
- IC50 (IL-6 [1]): 6.04 µM
- activity at 10 µM (IL-6 [2]): 39%

Compound: COc1ccc(Nc2nc(NCC3CCCCC3)nc(N(C)C3CCN(C)CC3)n2)cc1Cl [Compound 103, N-(3-Chloro-4-methoxy-phenyl)-N′-cyclohexylmethyl-N″-methyl-N″-(1-methyl-piperidin-4-yl)-[1,3,5]triazine-2,4,6-triamine]
- IC50 [3, 4]: > 7 µM
- IC50 [3, 5]: ~7 µM

Compound: CCCC(CCC)Nc1nc(Nc2ccc(OC)c(Cl)c2)nc(N(C)C2CCN(C)CC2)n1 [Compound 105, N-(3-Chloro-4-methoxy-phenyl)-N′-methyl-N′-(1-methyl-piperidin-4-yl)-N″-(1-propyl-butyl)-[1,3,5]triazine-2,4,6-triamine]
- IC50 [3, 4]: > 7 µM
- IC50 [3, 5]: ~7 µM

Compound: COc1ccc(Nc2nc(Cl)nc(NC3CCCCCC3)n2)cc1F [Compound 127, 6-Chloro-N-cycloheheptyl-N′-(3-fluoro-4-methoxy-phenyl)-[1,3,5]triazine-2,4-diamine]
- IC50 [3, 4]: > 7 µM
- IC50 [3, 5]: 10 µM
- activity at 10 µM (IL-6 [2]): 48%

Compound: COc1ccc(Nc2nc(NC3CCCCCC3)nc(N(C)C3CCN(C)CC3)n2)cc1Cl [Compound 137, N-(3-Chloro-4-methoxy-phenyl)-N′-cycloheptyl-N″-methyl-N″-(1-methyl-piperidin-4-yl)-[1,3,5]triazine-2,4,6-triamine]
- IC50 [3, 4]: 3 to 7 µM
- IC50 [3, 5]: 4 to 5 µM

Compound: CCN1CCC[C@H]1CNc1nc(Nc2ccc(OC)c(F)c2)nc(NC2CCCCCC2)n1 [Compound 139, N^2-cycloheptyl-N^4-((S)-1-ethyl-pyrrolidin-2-ylmethyl)-N^6-(3-fluoro-4-methoxyphenyl)-1,3,5-triazine-2,4,6-triamine]
- IC50 [3, 6]: 3 to 7 µM
- IC50 [3, 7]: 4 to 5 µM
- Inhibition of TNF-induced IL6 production (IL-6 [2]): ++++ (between 0 and about 25% of IL6 production compared to cells that did not receive compound (or per cent of control IL6 production))
- activity at 10 µM (IL-6 [2]): 16.1%

Compound: CCN1CCC[C@@H]1CNc1nc(Nc2ccc(OC)c(F)c2)nc(NC2CCCCCC2)n1 [Compound 140, N^2-cycloheptyl-N^4-((R)-1-ethyl-pyrrolidin-2-ylmethyl)-N^6-(3-fluoro-4-methoxyphenyl)-1,3,5-triazine-2,4,6-triamine]
- IC50 [3, 6]: 3 to 7 µM
- IC50 [3, 7]: 4 to 5 µM
- Inhibition of TNF-induced IL6 production (IL-6 [2]): ++++ (between 0 and about 25% of IL6 production compared to cells that did not receive compound (or per cent of control IL6 production))
- activity at 10 µM (IL-6 [2]): 12.6%

Compound: CCN(CC)c1ccc(Nc2nc(NCC3CCCN3CC)nc(NC3CCCCCC3)n2)cc1Cl (centres unmarked) [Compound 163]
- IC50 ([3]; anti-proliferation assay (perlecan), read-out: Activity (note 1)): > 7 µM
- IC50 ([3]; anti-proliferation assay (perlecan), read-out: Avg IC-50): 8 to 10 µM

Compound: COc1ccc(Nc2nc(NC3CCCCCC3)nc(N(C)C3CCN(C)CC3)n2)cc1Br [Compound 170]
- IC50 [3, 4]: > 7 µM
- IC50 [3, 5]: 8 to 9 µM

Compound: CN1CCC(N(C)c2nc(Nc3ccc4ccccc4c3)nc(NC3CCCCCC3)n2)CC1 [N^2-cycloheptyl-N^4-methyl-N^4-(1-methyl-piperidin-4-yl)-N^6-naphthalen-2-yl-1,3,5-triazine-2,4,6-triamine]
- activity in anti-proliferation assay (Perlecan) ([3]; same activity scale used in Table 3, in words): high activity
